# Source: patent US12729377B2, “RNAi agents and compositions for inhibiting expression of angiopoietin-like 3 (ANGPTL3), and methods of use” (Arrowhead Pharmaceuticals, Inc., priority 2017, dated 2026)
# In the oligonucleotide strings, read from the 5' end, every base follows the letter of its sugar. An asterisk marks phosphorothioate; unmarked linkages are phosphodiester. Other units and linkages are bracketed, terminal groups are in braces. A string of capitals states the bases alone. {NAG37} = tridentate N-acetyl-galactosamine targeting ligand, structure (NAG37)s; [invAb] = inverted abasic unit; m = 2'-O-methyl; f = 2'-fluoro
# How the values were obtained:
# ANGPTL3 gene [1] = experiment: Example 11: dose response, serum HDL in mice; type: in vivo, C57bl/6 mice
# Procedure: To assess the dose response of ANGPTL3 RNAi agent AD05488, six- to eight-week-old female C57bl/6 mice were used. Pre-dose serum samples were taken at day −1 after a four hour fast. At day 1, each mouse was given a single subcutaneous administration of 200 μl containing the respective mg/kg dose of an ANGPTL3 RNAi agent in D5W (dextrose in 5% water), or control (D5W) with no RNAi agent, according to the dosing groups recited in Table 53:
# The RNAi agent tested (AD05488) included a modified sequence and an N-acetyl-galactosamine-containing targeting ligand conjugated to the 5′ terminal end of the sense strand. (See Tables 3, 4, and 5 for modified sequences and targeting ligand structures). The injections were performed between the skin and muscle (i.e. subcutaneous injections) into the loose skin over the neck and shoulder area. Four (4) mice in each group were tested (n=4). Serum was collected on days 8, 15, 22, and 29. Mice were fasted for four hours prior to each collection. ANGPTL3 protein levels in serum were measured by ELISA assay (R&D Systems), according to the manufacturer's recommendations. Triglycerides, total cholesterol, high-density lipoprotein (HDL), and low-density lipoprotein (LDL) in serum were measured on a Cobas® Integra 400 (Roche Diagnostics), according to the manufacturer's recommendations.
# The ANGPTL3 protein levels, triglyceride levels, total cholesterol levels, HDL levels, and LDL levels for each animal were normalized. For normalization, the level of ANGPTL3 protein, triglyceride, HDL, and total cholesterol, respectively, for each animal at a time point, was divided by the pre-treatment level of expression in that animal (in this case at day −1) to determine the ratio of expression “normalized to pre-treatment.” Expression at a specific time point was then normalized to the D5W control group by dividing the “normalized to pre-treatment” ratio for an individual animal by the mean “normalized to pretreatment” ratio of all mice in the D5W control group.
# ANGPTL3 gene [2] = experiment: Example 13: serum triglycerides in HFCS diet-fed Rhesus monkeys; type: in vivo; conditions: for Avg TG (Triglycerides) Normalized to Pre-Treatment (Fasted): 4.0 mg/kg sc on day 1 and day 29
# Procedure: ANGPTL3 RNAi agent AD05488 was further evaluated in high-fructose corn syrup (HFCS) diet-fed Rhesus monkeys. Rhesus monkeys were placed on an HFCS diet 37 days prior to dosing. These animals were known to develop increased plasma triglycerides greater than 180 mg/dL on the HFCS diet. On day 1 and again on day 29, four (4) Rhesus monkeys were administered a subcutaneous injection containing 4.0 mg/kg of ANGPTL3 RNAi agent AD05488 formulated in saline (n=4). Two additional Rhesus monkeys were administered normal saline control.
# Fasted blood samples were drawn for analysis, and serum samples were analyzed on days-8 (predose), 8, 15, 21, 29, and 36. ANGPTL3 expression levels, triglycerides, total cholesterol, high-density lipoprotein (HDL), and low-density lipoprotein (LDL) in serum were measured on a Cobas® Integra 400 (Roche Diagnostics), according to the manufacturer's recommendations.
# The ANGPTL3 protein levels, triglyceride levels, total cholesterol levels, HDL levels, and LDL levels for each animal were normalized. For normalization, the level of ANGPTL3 protein, triglyceride, HDL, and total cholesterol, respectively, for each animal at a time point, was divided by the pre-treatment level of expression in that animal (in this case at day −8) to determine the ratio of expression “normalized to pre-treatment.”
substance,measurement,setting,value
"AD05488: RNAi agent duplex: antisense AM07235-AS, sense AM07234-SS (antisense mU*fA*mC*fUmGfAmUfCmAfAmAfUmAfUmGfUmUfGmAfG*mC; sense {NAG37}*[invAb]*mGmCmUmCmAmAmCmAfUfAfUmUmUmGmAmUmCmAmGmUmA*[invAb])",Avg HDL Normalized to Pre-Treatment and Control,"ANGPTL3 gene [1]; 0.05 mg/kg single sc day 1, Day 8",0.851
same,Avg HDL Normalized to Pre-Treatment and Control,"ANGPTL3 gene [1]; 0.05 mg/kg single sc day 1, Day 15",1.052
same,Avg HDL Normalized to Pre-Treatment and Control,"ANGPTL3 gene [1]; 0.05 mg/kg single sc day 1, Day 22",0.982
same,Avg HDL Normalized to Pre-Treatment and Control,"ANGPTL3 gene [1]; 0.05 mg/kg single sc day 1, Day 29",0.894
same,Avg HDL Normalized to Pre-Treatment and Control,"ANGPTL3 gene [1]; 0.1 mg/kg single sc day 1, Day 8",0.807
same,Avg HDL Normalized to Pre-Treatment and Control,"ANGPTL3 gene [1]; 0.1 mg/kg single sc day 1, Day 15",0.950
same,Avg HDL Normalized to Pre-Treatment and Control,"ANGPTL3 gene [1]; 0.1 mg/kg single sc day 1, Day 22",0.806
same,Avg HDL Normalized to Pre-Treatment and Control,"ANGPTL3 gene [1]; 0.1 mg/kg single sc day 1, Day 29",0.910
same,Avg HDL Normalized to Pre-Treatment and Control,"ANGPTL3 gene [1]; 0.5 mg/kg single sc day 1, Day 8",0.727
same,Avg HDL Normalized to Pre-Treatment and Control,"ANGPTL3 gene [1]; 0.5 mg/kg single sc day 1, Day 15",0.876
same,Avg HDL Normalized to Pre-Treatment and Control,"ANGPTL3 gene [1]; 0.5 mg/kg single sc day 1, Day 22",0.906
same,Avg HDL Normalized to Pre-Treatment and Control,"ANGPTL3 gene [1]; 0.5 mg/kg single sc day 1, Day 29",0.897
same,Avg HDL Normalized to Pre-Treatment and Control,"ANGPTL3 gene [1]; 1.0 mg/kg single sc day 1, Day 8",0.575
same,Avg HDL Normalized to Pre-Treatment and Control,"ANGPTL3 gene [1]; 1.0 mg/kg single sc day 1, Day 15",0.785
same,Avg HDL Normalized to Pre-Treatment and Control,"ANGPTL3 gene [1]; 1.0 mg/kg single sc day 1, Day 22",0.839
same,Avg HDL Normalized to Pre-Treatment and Control,"ANGPTL3 gene [1]; 1.0 mg/kg single sc day 1, Day 29",0.888
same,Avg HDL Normalized to Pre-Treatment and Control,"ANGPTL3 gene [1]; 2.5 mg/kg single sc day 1, Day 8",0.618
same,Avg HDL Normalized to Pre-Treatment and Control,"ANGPTL3 gene [1]; 2.5 mg/kg single sc day 1, Day 15",0.787
same,Avg HDL Normalized to Pre-Treatment and Control,"ANGPTL3 gene [1]; 2.5 mg/kg single sc day 1, Day 22",0.782
same,Avg HDL Normalized to Pre-Treatment and Control,"ANGPTL3 gene [1]; 2.5 mg/kg single sc day 1, Day 29",0.701
same,Avg HDL Normalized to Pre-Treatment and Control,"ANGPTL3 gene [1]; 5.0 mg/kg single sc day 1, Day 8",0.534
same,Avg HDL Normalized to Pre-Treatment and Control,"ANGPTL3 gene [1]; 5.0 mg/kg single sc day 1, Day 15",0.717
same,Avg HDL Normalized to Pre-Treatment and Control,"ANGPTL3 gene [1]; 5.0 mg/kg single sc day 1, Day 22",0.760
same,Avg HDL Normalized to Pre-Treatment and Control,"ANGPTL3 gene [1]; 5.0 mg/kg single sc day 1, Day 29",0.759
same,reductions in triglyceride levels,"ANGPTL3 gene [2]; 4.0 mg/kg on days 1 and 29, HFCS diet-fed Rhesus monkeys",reductions
same,Avg TG (Triglycerides) Normalized to Pre-Treatment (Fasted),ANGPTL3 gene [2]; Day 8,0.351
same,Avg TG (Triglycerides) Normalized to Pre-Treatment (Fasted),ANGPTL3 gene [2]; Day 15,0.244
same,Avg TG (Triglycerides) Normalized to Pre-Treatment (Fasted),ANGPTL3 gene [2]; Day 21,0.233
same,Avg TG (Triglycerides) Normalized to Pre-Treatment (Fasted),ANGPTL3 gene [2]; Day 29,0.302
same,Avg TG (Triglycerides) Normalized to Pre-Treatment (Fasted),ANGPTL3 gene [2]; Day 36,0.177
